According to ChEMBL document CHEMBL2440076, “New triarylpyrazoles as broad-spectrum anticancer agents: design, synthesis, and biological evaluation” (Eur J Med Chem, 2013):

Columns and labels:
Type in all cases: functional
786-0 [1] = assay: Growth inhibition of human 786-0 cells assessed as cell growth at 3X10'-7 M after 48 hrs by sulforhodamine B assay; conditions: 786-0, 48 h, read-out: Activity
IGROV-1 [2] = assay: Growth inhibition of human IGROV1 cells assessed as cell growth at 3X10'-7 M after 48 hrs by sulforhodamine B assay; conditions: IGROV-1, 48 h, read-out: Activity
SF-268 = assay: Growth inhibition of human SF268 cells assessed as cell growth at 3X10'-7 M after 48 hrs by sulforhodamine B assay; conditions: SF-268, 48 h, read-out: Activity
HCT-116 [3] = assay: Growth inhibition of human HCT116 cells assessed as cell growth at 3X10'-7 M after 48 hrs by sulforhodamine B assay; conditions: HCT-116, 48 h, read-out: Activity
MOLT-4 = assay: Growth inhibition of human MOLT4 cells assessed as cell growth at 3X10'-7 M after 48 hrs by sulforhodamine B assay; conditions: MOLT-4, 48 h, read-out: Activity
SN12C [4] = assay: Growth inhibition of human SN12C cells assessed as cell growth at 3X10'-8 M after 48 hrs by sulforhodamine B assay; conditions: read-out: Activity
RXF 393 = assay: Growth inhibition of human RXF393 cells assessed as cell growth at 3X10'-8 M after 48 hrs by sulforhodamine B assay; conditions: RXF 393, 48 h, read-out: Activity
UACC-257 = assay: Growth inhibition of human UACC257 cells assessed as cell growth at 3X10'-8 M after 48 hrs by sulforhodamine B assay; conditions: UACC-257, 48 h, read-out: Activity
SK-MEL-5 = assay: Growth inhibition of human SK-MEL-5 cells assessed as cell growth at 3X10'-8 M after 48 hrs by sulforhodamine B assay; conditions: SK-MEL-5, 48 h, read-out: Activity
SK-MEL-2 = assay: Growth inhibition of human SK-MEL-2 cells assessed as cell growth at 3X10'-8 M after 48 hrs by sulforhodamine B assay; conditions: SK-MEL-2, 48 h, read-out: Activity
MDA-MB-435 = assay: Growth inhibition of human MDA-MB-435 cells assessed as cell growth at 3X10'-8 M after 48 hrs by sulforhodamine B assay; conditions: MDA-MB-435, 48 h, read-out: Activity
LOX IMVI [5] = assay: Growth inhibition of human LOXIMVI cells assessed as cell growth at 3X10'-8 M after 48 hrs by sulforhodamine B assay; conditions: read-out: Activity
SNB-19 = assay: Growth inhibition of human SNB19 cells assessed as cell growth at 3X10'-8 M after 48 hrs by sulforhodamine B assay; conditions: SNB-19, 48 h, read-out: Activity
HCT-15 = assay: Growth inhibition of human HCT15 cells assessed as cell growth at 3X10'-8 M after 48 hrs by sulforhodamine B assay; conditions: HCT-15, 48 h, read-out: Activity
HCT-116 [6] = assay: Growth inhibition of human HCT116 cells assessed as cell growth at 3X10'-8 M after 48 hrs by sulforhodamine B assay; conditions: HCT-116, 48 h, read-out: Activity
NCI-H460 = assay: Growth inhibition of human NCI-H460 cells assessed as cell growth at 3X10'-8 M after 48 hrs by sulforhodamine B assay; conditions: NCI-H460, 48 h, read-out: Activity
HL-60(TB) [7] = assay: Growth inhibition of human HL-60(TB) cells assessed as cell growth at 3X10'-8 M after 48 hrs by sulforhodamine B assay; conditions: HL-60, 48 h, read-out: Activity
TK-10 = assay: Growth inhibition of human TK10 cells assessed as cell growth at 3X10'-9 M after 48 hrs by sulforhodamine B assay; conditions: TK-10, 48 h, read-out: Activity
786-0 [8] = assay: Growth inhibition of human 786-0 cells assessed as cell growth at 3X10'-9 M after 48 hrs by sulforhodamine B assay; conditions: 786-0, 48 h, read-out: Activity
[9] = Growth inhibition of human NCI-ADR-RES cells assessed as cell growth at 3X10'-9 M after 48 hrs by sulforhodamine B assay; conditions: read-out: Activity
OVCAR-4 [10] = assay: Growth inhibition of human OVCAR4 cells assessed as cell growth at 3X10'-9 M after 48 hrs by sulforhodamine B assay; conditions: OVCAR-4, 48 h, read-out: Activity
SF-295 = assay: Growth inhibition of human SF295 cells assessed as cell growth at 3X10'-5 M after 48 hrs by sulforhodamine B assay; conditions: SF-295, 48 h, read-out: Activity
NCI-H23 = assay: Growth inhibition of human NCI-H23 cells assessed as cell growth at 3X10'-5 M after 48 hrs by sulforhodamine B assay; conditions: NCI-H23, 48 h, read-out: Activity
NCI-H226 = assay: Growth inhibition of human NCI-H226 cells assessed as cell growth at 3X10'-5 M after 48 hrs by sulforhodamine B assay; conditions: NCI-H226, 48 h, read-out: Activity
SR = assay: Growth inhibition of human SR cells assessed as cell growth at 3X10'-5 M after 48 hrs by sulforhodamine B assay; conditions: read-out: Activity
T47D = assay: Growth inhibition of human T47D cells assessed as cell growth at 3X10'-6 M after 48 hrs by sulforhodamine B assay; conditions: read-out: Activity
DU-145 = assay: Growth inhibition of human DU145 cells assessed as cell growth at 3X10'-6 M after 48 hrs by sulforhodamine B assay; conditions: DU-145, 48 h, read-out: Activity
UO-31 = assay: Growth inhibition of human UO31 cells assessed as cell growth at 3X10'-6 M after 48 hrs by sulforhodamine B assay; conditions: UO-31, 48 h, read-out: Activity
SN12C [11] = assay: Growth inhibition of human SN12C cells assessed as cell growth at 3X10'-6 M after 48 hrs by sulforhodamine B assay; conditions: read-out: Activity
LOX IMVI [12] = assay: Growth inhibition of human LOXIMVI cells assessed as cell growth at 3X10'-9 M after 48 hrs by sulforhodamine B assay; conditions: read-out: Activity
ACHN = assay: Growth inhibition of human ACHN cells assessed as cell growth at 3X10'-6 M after 48 hrs by sulforhodamine B assay; conditions: read-out: Activity
OVCAR-4 [13] = assay: Growth inhibition of human OVCAR4 cells assessed as cell growth at 3X10'-6 M after 48 hrs by sulforhodamine B assay; conditions: OVCAR-4, 48 h, read-out: Activity
IGROV-1 [14] = assay: Growth inhibition of human IGROV1 cells assessed as cell growth at 3X10'-6 M after 48 hrs by sulforhodamine B assay; conditions: IGROV-1, 48 h, read-out: Activity
UACC-62 = assay: Growth inhibition of human UACC62 cells assessed as cell growth at 3X10'-6 M after 48 hrs by sulforhodamine B assay; conditions: UACC-62, 48 h, read-out: Activity
M14 = assay: Growth inhibition of human M14 cells assessed as cell growth at 3X10'-6 M after 48 hrs by sulforhodamine B assay; conditions: M14, 48 h, read-out: Activity
U-251 = assay: Growth inhibition of human U251 cells assessed as cell growth at 3X10'-6 M after 48 hrs by sulforhodamine B assay; conditions: U-251, 48 h, read-out: Activity
HL-60(TB) [15] = assay: Growth inhibition of human HL-60(TB) cells assessed as cell growth at 3X10'-6 M after 48 hrs by sulforhodamine B assay; conditions: HL-60, 48 h, read-out: Activity

Compound | growth at 0.3 µM (786-0 [1]) [%] | growth at 0.3 µM (IGROV-1 [2]) [%] | growth at 0.3 µM (SF-268) [%] | growth at 0.3 µM (HCT-116 [3]) [%] | growth at 0.3 µM (MOLT-4) [%] | growth at 0.03 µM (SN12C [4]) [%] | growth at 0.03 µM (RXF 393) [%] | growth at 0.03 µM (UACC-257) [%] | growth at 0.03 µM (SK-MEL-5) [%] | growth at 0.03 µM (SK-MEL-2) [%] | growth at 0.03 µM (MDA-MB-435) [%] | growth at 0.03 µM (LOX IMVI [5]) [%] | growth at 0.03 µM (SNB-19) [%] | growth at 0.03 µM (HCT-15) [%] | growth at 0.03 µM (HCT-116 [6]) [%] | growth at 0.03 µM (NCI-H460) [%] | growth at 0.03 µM (HL-60(TB) [7]) [%] | growth at 0.003 µM (TK-10) [%] | growth at 0.003 µM (786-0 [8]) [%] | growth at 0.003 µM [9] [%] | other results
COc1cc(-c2nn(-c3cccc(NC(=O)Nc4ccc(Cl)c(C(F)(F)F)c4)c3)cc2-c2ccncc2)ccc1Cl | 101 | 109 | 97 | 99 | 90 | 94 | 93 | 90 | 91 | 115 | 92 | 100 | 93 | 97 | 103 | 102 | 103 | 101 | 101 | 104 | growth at 0.003 µM (OVCAR-4 [10]): 96%; growth at 30 µM (SF-295): -70%; growth at 30 µM (NCI-H23): -16%; growth at 30 µM (NCI-H226): 3%; growth at 30 µM (SR): -12%; growth at 3 µM (T47D): 18%; growth at 3 µM (DU-145): 23%; growth at 3 µM (UO-31): 3%; growth at 3 µM (SN12C [11]): 16%; growth at 0.003 µM (LOX IMVI [12]): 97%; growth at 3 µM (ACHN): 8%; growth at 3 µM (OVCAR-4 [13]): 19%; growth at 3 µM (IGROV-1 [14]): 5%; growth at 3 µM (UACC-62): -21%; growth at 3 µM (M14): 4%; growth at 3 µM (U-251): 7%; growth at 3 µM (HL-60(TB) [15]): 2%
COc1cc(-c2nn(-c3cccc(NC(=O)c4ccc(Cl)c(C(F)(F)F)c4)c3)cc2-c2ccncc2)ccc1Cl | 99 | 95 | 89 | 100 | 98 | 99 | 99 | 102 | 97 | 100 | 97 | 91 | 96 | 99 | 101 | 104 | 113 | 90 | 94 | 97 | growth at 0.003 µM (OVCAR-4 [10]): 98%; growth at 30 µM (SF-295): -10%; growth at 30 µM (NCI-H23): 17%; growth at 30 µM (NCI-H226): 23%; growth at 30 µM (SR): 4%; growth at 3 µM (T47D): 40%; growth at 3 µM (DU-145): 67%; growth at 3 µM (UO-31): 29%; growth at 3 µM (SN12C [11]): 68%; growth at 0.003 µM (LOX IMVI [12]): 92%; growth at 3 µM (ACHN): 47%; growth at 3 µM (OVCAR-4 [13]): 62%; growth at 3 µM (IGROV-1 [14]): 40%; growth at 3 µM (UACC-62): 40%; growth at 3 µM (M14): 47%; growth at 3 µM (U-251): 49%; growth at 3 µM (HL-60(TB) [15]): 58%
